Experimental data from US4927826A, “Cycloproylpropenamides useful as platelet activing factor (PAF) antagonists” (Hoffman-La Roche Inc., priority 1988, dated 1990).

What was measured:
dog platelets = assay: Binding assay: inhibition of 3H-PAF binding to dog platelets; conditions: 10 minutes at room temperature
Experimental: The binding assay was done in 400 μl polyethylene microcentrifuge tubes (Beckman) containing 50 μl of an oil mixture of 2 parts Siliconol AR200 (Serva): 1 part Silicone Fluid (Arthur H. Thomas). Buffer, standards, or analogs (150 μl total volume) were added to the tubes. Radiolabelled ^3 H-PAF (50 μl) was then added to the tubes. The reaction was started by the addition of 50 μl of dog platelets (2×10^7 platelets). The tubes were capped, inverted several times to mix, and incubated for 10 minutes at room temperature. The platelets were separated from the incubation mixture by centrifuging 1 minute in a Beckman Microfuge B centrifuge. The tip of the microfuge tube was cut off, and the platelets were washed out of the tip with 200 μl of 50% methanol (Burdick and Jackson). Aquasol (NEN, 10 ml) was added and the radioactivity in the samples was determined using an LS 8100 Beckman liquid scintillation counter linked to a Techtran tape recorder. Data was processed through an in-house computer system. Alternatively, radioactivity was determined using a Searle Mark III liquid scintillation counter linked to a Iso-Data microprocessor.
(b) Preparation of Platelets
Blood was collected from anesthesized or unanesthesized dogs into 50 ml plastic centrifuge tubes containing 3.8% sodium citrate as the anticoagulant (1 volume of citrate/9 volumes of blood). The red cells were removed by centrifugation for 15 minutes at 600 rpm (100-125 g) at room temperature. An aliquot of the supernatant platelet rich plasma (PRP) was saved for cell counting and the remainder was acidified by pH 6.5 with 0.15M citric acid. The platelet pellet was obtained after a 10 minute centrifugation at 2000 rpm (1000 g) at room temperature. Washed platelets were prepared by resuspending the platelet pellet once with PBS containing 1 mM EDTA, centrifuging as noted, and then resuspending the platelets in 0.1% BSA-PBS. An aliquot of the washed platelets was counted. Platelets used for binding assays were diluted to 2×10^7 platelets/assay tube (4×10^8 platelets/ml). Platelet counting was done using a Royco Cell-Crit 921.

[1] = tested on: PAF-induced Bronchoconstriction; assay: PAF Induced Bronchoconstriction Assay; assay type: in vivo; conditions: guinea pig, ± standard error of the mean; for Percent Inhib. of PAF-induced Bronchoconstriction, 1 mg/Kg i.v.: 1 minute pretreatment, PAF 1.0 μg/kg i.v.; for Percent Inhib. of PAF-induced Bronchoconstriction, 50 mg/Kg p.o.: 2-hour pretreatment, PAF i.v.
Experimental: PAF Induced Bronchoconstriction Assay
Male animals (Hartlet Strain, 400-500 g) were anesthetized with urethane (2 g/kg, i.p.). Each animals' trachea was cannulated and the guinea pigs were respirated using a Harvard small animal rodent respirator (3.0 cc stroke volume, 40 breaths per min.). Tracheal pressure was recorded from a cannula inserted in the trachea and connected to a Statham Pressure Transducer.
The jugular vein was cannulated for administering compounds. Spontaneous breathing was arrested with succinylcholine (1.2 mg/kg, i.v.) administered 2 minutes prior to intravenous injection of platelet activating factor (PAF).
For, the intravenous testing, the guinea pig is given a 5-minute pretreatment with propranolol at a dose of 0.1 mg/kg intravenously. The test compound is administered with a 1 minute pretreatment prior to intravenous challenge with PAF. The animal is then challenged with a 1.0 μg/kg intravenous dose of PAF and the change is tracheal pressure is measured.
For the oral testing, the procedure includes a 2-hour pretreatment period with the test compound administered through an oral gavage tube. Propranolol or succinylcholine and PAF are administered intravenously, and the change in tracheal pressure measured.
The change is tracheal pressure is determined by subtracting the steady state baseline achieved after administration of succinylcholine from the peak bronchoconstriction seen after challenge with PAF. The mean is calculated for each test compound and compared to the mean of the control animals to give the percent inhibition of bronchoconstriction. The standard error is calculated as the standard error of the mean.

**Q.** With O=C(CC[C@@H]1CC1(c1ccccc1)c1ccccc1)NCCCCc1cccnc1 [(R)-2,2-Diphenyl-N-[4-(3-pyridinyl)butyl]cyclopropanepropanamide] as the compound, how does the IC50 (dog platelets) read?
**A.** 600 nM

**Q.** How did the “Percent Inhib. of PAF-induced Bronchoconstriction, 1 mg/Kg i.v.” value [1] turn out when O=C(/C=C/[C@@H]1CC1(c1ccc(F)cc1)c1ccc(F)cc1)NCCCCc1cccnc1 [[S-(E)]-3-[2,2-bis(4-Fluorophenyl)cyclopropyl]-N-[4-(3-pyridinyl)butyl]-2-propenamide] was run?
**A.** 33 ± 7%

**Q.** And the “Percent Inhib. of PAF-induced Bronchoconstriction, 50 mg/Kg p.o.” value [1]?
**A.** 62 ± 13%

**Q.** And the IC50 (dog platelets)?
**A.** 25 nM

**Q.** With C[C@@]1(/C=C/C(=O)NCCCCc2cccnc2)CC1(c1ccc(F)cc1)c1ccc(F)cc1 [[S-(E)]-3-[2,2-bis(4-Fluorophenyl)-1-methylcyclopropyl]-N-[4-(3-pyridinyl)butyl]-2-propenamide] as the compound, how does the IC50 (dog platelets) read?
**A.** 200 nM

**Q.** With S=C(/C=C/C1CC1(c1ccccc1)c1ccccc1)NCCCCc1cccnc1 (racemic) [(R,S)-(E)-3-(Diphenylcyclopropyl)-N-[4-(3-pyridinyl)butyl]-2-propenethioamide] as the compound, how does the IC50 (dog platelets) read?
**A.** 55 nM

**Q.** With O=C(/C=C\[C@H]1CC1(c1ccccc1)c1ccccc1)NCCCCc1cccnc1 [[R-(Z)]-3-(2,2-Diphenylcyclopropyl)-N-[4-(3-pyridinyl)butyl]-2-propenamide] as the compound, how does the IC50 (dog platelets) read?
**A.** 100 nM

**Q.** Which IC50 (dog platelets) does the source give for O=C(CCC1CC1(c1ccccc1)c1ccccc1)NCCCCc1cccnc1 (racemic) [(R,S)-2,2-Diphenyl-N-[4-(3-pyridinyl)butyl]cyclopropanepropanamide] here?
**A.** 300 nM

**Q.** Which “Percent Inhib. of PAF-induced Bronchoconstriction, 1 mg/Kg i.v.” value [1] does the source give for COc1cccc(C2(c3cccc(OC)c3)C[C@H]2/C=C/C(=O)NCCCCc2cccnc2)c1 [[S-(E)]-3-[2,2-bis(3-Methoxyphenyl)cyclopropyl]-N-[4-(3-pyridinyl)butyl]-2-propenamide] here?
**A.** 25 ± 8%

**Q.** And the IC50 (dog platelets)?
**A.** 36 nM

**Q.** COc1cccc([C@@]2(c3ccccc3)C[C@@H]2/C=C\C(=O)NCCCCc2cccnc2)c1 (relative stereo) [[1(R,S),2(S,R)-(Z)]-3-[[2-(3-Methoxyphenyl)-2-phenyl]cyclopropyl]-N-[4-(3-pyridinyl)butyl]-2-propenamide] was tested. Which “Percent Inhib. of PAF-induced Bronchoconstriction, 50 mg/Kg p.o.” value [1] did it give?
**A.** 15 ± 12%

**Q.** What about the IC50 (dog platelets) of the same compound?
**A.** 250 nM

**Q.** Which IC50 (dog platelets) does the source give for COc1cccc([C@]2(c3ccccc3)C[C@@H]2/C=C/C(=O)NCCCCc2cccnc2)c1 (relative stereo) [[1(R,S),2(R,S)-(E)]-3-[[2-(3-Methoxyphenyl)-2-phenyl]cyclopropyl]-N-[4-(3-pyridinyl)butyl]-2-propenamide] here?
**A.** 8 nM

**Q.** How did the IC50 (dog platelets) turn out when O=C(/C=C\[C@@H]1CC1(c1ccccc1)c1ccccc1)NCCCCc1cccnc1 [[S-(Z)]-3-(2,2-Diphenylcyclopropyl)-N-[4-(3-pyridinyl)butyl]-2-propenamide] was run?
**A.** 1000 nM

**Q.** How did the “Percent Inhib. of PAF-induced Bronchoconstriction, 50 mg/Kg p.o.” value [1] turn out when O=C(/C=C\C1CC1(c1ccc(F)cc1)c1ccc(F)cc1)NCCCCc1cccnc1 (racemic) [[R,S-(Z)]-3-[2,2-bis(4-Fluorophenyl)cyclopropyl]-N-[4-[3-pyridinyl)butyl]-2-propenamide] was run?
**A.** 78 ± 11%

**Q.** And the IC50 (dog platelets)?
**A.** 1000 nM

**Q.** Which IC50 (dog platelets) does the source give for COc1cccc([C@@]2(c3ccccc3)C[C@@H]2/C=C/C(=O)NCCCCc2cccnc2)c1 (relative stereo) [[1(R,S),2(S,R)-(E)]-3-[[2-(3-Methoxyphenyl)-2-phenyl]cyclopropyl]-N-[4-(3-pyridinyl)butyl]-2-propenamide] here?
**A.** 35 nM

**Q.** Which results are given for O=C(/C=C/C1CC1(c1ccc(F)cc1)c1ccc(F)cc1)NCCCCc1cccnc1 (racemic) [[R,S-(E)]-3-[2,2-bis(4-Fluorophenyl)cyclopropyl]-N-[4-(3-pyridinyl)butyl]-2-propenamide]?
**A.** Percent Inhib. of PAF-induced Bronchoconstriction, 1 mg/Kg i.v. [1]: 20 ± 8%; Percent Inhib. of PAF-induced Bronchoconstriction, 50 mg/Kg p.o. [1]: 82 ± 5%; IC50 (dog platelets): 100 nM

**Q.** With O=C(/C=C/C1CC1(c1ccccc1)c1ccccc1)NCCCCc1cccnc1 (racemic) [[R,S-(E)]-3-(2,2-Diphenylcyclopropyl)-N-[4-(3-pyridinyl)butyl]-2-propenamide] as the compound, how does the “Percent Inhib. of PAF-induced Bronchoconstriction, 1 mg/Kg i.v.” value [1] read?
**A.** 48 ± 16%

**Q.** What about the IC50 (dog platelets) of the same compound?
**A.** 150 nM

**Q.** Which “Percent Inhib. of PAF-induced Bronchoconstriction, 1 mg/Kg i.v.” value [1] does the source give for O=C(/C=C/[C@H]1CC1(c1ccccc1)c1ccccc1)NCCCCc1cccnc1 [[R-(E)]-3-(2,2-Diphenylcyclopropyl)-N-[4-(3-pyridinyl)butyl]-2-propenamide] here?
**A.** 71 ± 12%

**Q.** And the “Percent Inhib. of PAF-induced Bronchoconstriction, 50 mg/Kg p.o.” value [1]?
**A.** 57 ± 19%

**Q.** And the IC50 (dog platelets)?
**A.** 250 nM

**Q.** Which IC50 (dog platelets) does the source give for O=C(CC[C@H]1CC1(c1ccccc1)c1ccccc1)NCCCCc1cccnc1 [(S)-2,2-Diphenyl-N-[4-(3-pyridinyl)butyl]cyclopropanepropanamide] here?
**A.** 200 nM

**Q.** For C[C@H](CCCc1cccnc1)NC(=O)/C=C/[C@@H]1CC1(c1cccc(F)c1)c1cccc(F)c1 (relative stereo) [[S,R*-(E)]-3-[2,2-bis(3-Fluorophenyl)cyclopropyl]-N-[1-methyl-4-(3-pyridinyl)butyl]-2-propenamide], which IC50 (dog platelets) is on record?
**A.** 130 nM

**Q.** With COc1cccc(C2(c3cccc(OC)c3)CC2/C=C/C(=O)NCCCCc2cccnc2)c1 (racemic) [[R,S-(E)]-3-[2,2-bis(3-Methoxyphenyl)cyclopropyl]-N-[4-(3-pyridinyl)butyl]-2-propenamide] as the compound, how does the “Percent Inhib. of PAF-induced Bronchoconstriction, 50 mg/Kg p.o.” value [1] read?
**A.** 14 ± 1%

**Q.** And the IC50 (dog platelets)?
**A.** 70 nM

**Q.** For O=C(/C=C\C1CC1(c1ccccc1)c1ccccc1)NCCCCc1cccnc1 (racemic) [[R,S-(Z)]-3-(2,2-Diphenylcyclopropyl)-N-[4-(3-pyridinyl)butyl]-2-propenamide], which IC50 (dog platelets) is on record?
**A.** 650 nM

**Q.** Which IC50 (dog platelets) does the source give for O=C(/C=C/C1CC1(c1cccc(C(F)(F)F)c1)c1cccc(C(F)(F)F)c1)NCCCCc1cccnc1 (racemic) [[R,S-(E)]-3-[2,2-bis[3-(trifluoromethyl)phenyl]cyclopropyl]-N-[4-(3-pyridinyl)butyl]-2-propenamide] here?
**A.** 350 nM

**Q.** How did the IC50 (dog platelets) turn out when CC1(/C=C/C(=O)NCCCCc2cccnc2)CC1(c1ccc(F)cc1)c1ccc(F)cc1 (racemic) [[R,S-(E)]-3-[2,2-bis(4-Fluorophenyl)-1-methylcyclopropyl]-N-[4-(3-pyridinyl)butyl]-2-propenamide] was run?
**A.** 300 nM

**Q.** Which IC50 (dog platelets) does the source give for C[C@]1(/C=C/C(=O)NCCCCc2cccnc2)CC1(c1ccc(F)cc1)c1ccc(F)cc1 [[R-(E)]-3-[2,2-bis(4-fluorophenyl)-1-methylcyclopropyl]-N-[4-(3-pyridinyl)butyl]-2-propenamide] here?
**A.** 500 nM

**Q.** What does the source list for COc1cccc([C@]2(c3ccccc3)C[C@@H]2/C=C\C(=O)NCCCCc2cccnc2)c1 (relative stereo) [[1(R,S),2(R,S)-(Z)]-3-[[2-(3-Methoxyphenyl)-2-phenyl]cyclopropyl]-N-[4-(3-pyridinyl)butyl]-2-propenamide]?
**A.** Percent Inhib. of PAF-induced Bronchoconstriction, 50 mg/Kg p.o. [1]: 9 ± 14%; IC50 (dog platelets): 300 nM

**Q.** Which “Percent Inhib. of PAF-induced Bronchoconstriction, 1 mg/Kg i.v.” value [1] does the source give for O=C(/C=C/[C@H]1CC1(c1ccc(F)cc1)c1ccc(F)cc1)NCCCCc1cccnc1 [[R-(E)]-3-[2,2-bis(4-Fluorophenyl)cyclopropyl]-N-[4-(3-pyridinyl)butyl]-2-propenamide] here?
**A.** 13 ± 11%

**Q.** And the “Percent Inhib. of PAF-induced Bronchoconstriction, 50 mg/Kg p.o.” value [1]?
**A.** 83 ± 31%

**Q.** And the IC50 (dog platelets)?
**A.** 200 nM

**Q.** Which IC50 (dog platelets) does the source give for C[C@H](CCCc1cccnc1)NC(=O)/C=C/[C@@H]1CC1(c1ccc(F)cc1)c1ccc(F)cc1 (relative stereo) [[S,R*-(E)]-3-[2,2-bis(4-Fluorophenyl)cyclopropyl]-N-[1-methyl-4-(3-pyridinyl)butyl]-2-propenamide] here?
**A.** 450 nM

**Q.** For O=C(/C=C/[C@H]1CC1(c1cccc(F)c1)c1cccc(F)c1)NCCCCc1cccnc1 [[R-(E)]-3-[2,2-bis(3-Fluorophenyl)cyclopropyl]-N-[4-(3-pyridinyl)butyl]-2-propenamide], which “Percent Inhib. of PAF-induced Bronchoconstriction, 1 mg/Kg i.v.” value [1] is on record?
**A.** 29 ± 3%

**Q.** What about the “Percent Inhib. of PAF-induced Bronchoconstriction, 50 mg/Kg p.o.” value [1] of the same compound?
**A.** 10 ± 13%

**Q.** What about the IC50 (dog platelets) of the same compound?
**A.** 200 nM

**Q.** COc1cccc(C2(c3cccc(OC)c3)CC2/C=C/C(=O)NC(C)CCCc2cccnc2)c1 (stereo in doubt) [(S,R*)-(E)-3-[2,2-bis(3-Methoxyphenyl)cyclopropyl]-N-[1-methyl-4-(3-pyridinyl)butyl]-2-propenamide] was tested. Which IC50 (dog platelets) did it give?
**A.** 450 nM
